Experimental findings from patent US20170295788A1, “USE OF HETEROCYCLIC FLUOROALKENYL SULFONE COMPOUNDS FOR REPELLING MOLLUSCS” (Adama Makhteshim Ltd., priority 2014, published 2017) are described below.

The assay relates to Deroceras reticulatum. The assay can be described thus: Split box trial: slug damage to lettuce seedlings / slug repellency. In kind it is in vivo. As to the method: A split box trial was conducted using Deroceras reticulatum as the slug species and lettuce seedling as the food source. There were 5 split treatments with each treatment replicated four times using a simple randomized block design. Each plot was a single enclosed cage of dimensions 0.6 m×0.4 m. Each cage was of opaque plastic construction with rigid sides and a removable fine muslin top to prevent escape of the slugs. The cages were each filled with natural loam soil to a depth of approximately 7 cm, which was consolidated to prevent slug escape. Half of each box was covered with a polythene sheet before spraying to prevent the spray from reaching the soil on half of the box. […] Following the application of fluensulfone 250 CS, one treatment was incorporated into the soil by mixing the top 2 cm of the soil. The other applications had no soil incorporation. Lettuce plants were planted into the soil either seven or two days after spraying. At these intervals after spraying, six lettuce plants were planted into each cage, three in the treated side and three in the untreated side. After transplanting the lettuce plants, eight adult slugs were introduced into the centre of each cage. The soil was kept damp for the duration of the trials. [table] All sprayed treatments applied in 200 l/ha water. Assessments were carried out after the introduction of the slugs. Severity of leaf damage was assessed using a % scale where 0=no damage and 100=total loss of plant foliage. Incidence of plant damage was assessed by counting the actual number of plants showing damage.

Consider `O=S(=O)(CCC(F)=C(F)F)c1ncc(Cl)s1` [fluensulfone], for which the “numbers of damaged lettuce plants” value (all fluensulfone treated boxes, compared to the untreated box) is reported as “reduced compared to the untreated box”. The “amount of damage caused to the lettuce plants (damage severity)” value (treated boxes compared to the untreated box) is “reduced”. In addition, the “effect on live slugs (repellency)” value (treated boxes, slugs avoided the sprayed side and migrated to the untreated side) is “repellent effect”.
